Measurements taken from patent publication US20250333424A1, “ANTIVIRAL COMPOUNDS” (Gilead Sciences, Inc., priority 2024, published 2025).

Tested on: monocytic THP1 cells infected with HIV VSV-G pseudotyped GFP-NEF reporter virus
Test: cells
Format: cell-based
Conditions: Human immunodeficiency virus 1, THP-1, 24 h

SMILES	EC50
Cc1cc(/C=C/C#N)cc(C)c1Oc1nc(NC23CC(C#N)(C2)C3)nc2c1C(OCC(F)F)NC2=O (centres unmarked) [Compound 289, (E)-3-((4-(4-(2-cyanovinyl)-2,6-dimethylphenoxy)-5-(2,2-difluoroethoxy)-7-oxo-6,7-dihydro-5H-pyrrolo[3,4-d]pyrimidin-2-yl)amino)bicyclo[1.1.1]pentane-1-carbonitrile]	52.9 nM
Cc1cc(/C=C/C#N)cc(C)c1Oc1nc(NC23CC(C#N)(C2)C3)nc2c(=O)n(C)[nH]c12 [Compound 290, (E)-3-((7-(4-(2-cyanovinyl)-2,6-dimethylphenoxy)-2-methyl-3-oxo-2,3-dihydro-1H-pyrazolo[4,3-d]pyrimidin-5-yl)amino)bicyclo[1.1.1]pentane-1-carbonitrile]	387 nM
Cc1cc(/C=C/C#N)cc(C)c1Oc1nc(NC23CC(C#N)(C2)C3)nc2c(=O)n(C)n(C)c12 [Compound 291, (E)-3-((7-(4-(2-cyanovinyl)-2,6-dimethylphenoxy)-1,2-dimethyl-3-oxo-2,3-dihydro-1H-pyrazolo[4,3-d]pyrimidin-5-yl)amino)bicyclo[1.1.1]pentane-1-carbonitrile]	31.1 nM
Cc1cc(/C=C/C#N)cc(C)c1Oc1nc(NC23CC(C#N)(C2)C3)nc2c(=O)n(C)n(C(F)F)c12 [Compound 292, (E)-3-((7-(4-(2-cyanovinyl)-2,6-dimethylphenoxy)-1-(difluoromethyl)-2-methyl-3-oxo-2,3-dihydro-1H-pyrazolo[4,3-d]pyrimidin-5-yl)amino)bicyclo[1.1.1]pentane-1-carbonitrile]	58.8 nM
COc1n[nH]c2c(Oc3c(C)cc(/C=C/C#N)cc3C)nc(NC34CC(C#N)(C3)C4)nc12 [Compound 293, (E)-3-((7-(4-(2-cyanovinyl)-2,6-dimethylphenoxy)-3-methoxy-1H-pyrazolo[4,3-d]pyrimidin-5-yl)amino)bicyclo[1.1.1]pentane-1-carbonitrile]	56.3 nM
CCOc1nn(CC)c2c(Oc3c(C)cc(/C=C/C#N)cc3C)nc(NC34CC(C#N)(C3)C4)nc12 [Compound 294, (E)-3-((7-(4-(2-cyanovinyl)-2,6-dimethylphenoxy)-3-ethoxy-1-ethyl-1H-pyrazolo[4,3-d]pyrimidin-5-yl)amino)bicyclo[11.1.1]pentane-1-carbonitrile]	23.3 nM
Cc1cc(/C=C/C#N)cc(C)c1Oc1nc(NC23CC(C#N)(C2)C3)nc2c(=O)n3n(c12)CCC3 [Compound 295, (E)-3-((4-(4-(2-cyanovinyl)-2,6-dimethylphenoxy)-10-oxo-7,8-dihydro-6H,10H-pyrazolo[1′,2′:1,2]pyrazolo[4,3-d]pyrimidin-2-yl)amino)bicyclo[1.1.1]pentane-1-carbonitrile]	55.3 nM
Cc1cc(/C=C/C#N)cc(C)c1Oc1nc(NC23CC(C#N)(C2)C3)nc2snc(C)c12 [Compound 296, (E)-3-((4-(4-(2-cyanovinyl)-2,6-dimethylphenoxy)-3-methylisothiazolo[5,4-d]pyrimidin-6-yl)amino)bicyclo[1.1.1]pentane-1-carbonitrile]	59.5 nM
Cc1cc(/C=C/C#N)cc(C)c1Oc1nc(NC23CC(C#N)(C2)C3)nc2c1c(C)n[s+]2[O-] (centres unmarked) [Compound 297, (E)-3-((4-(4-(2-cyanovinyl)-2,6-dimethylphenoxy)-3-methyl-1-oxidoisothiazolo[5,4-d]pyrimidin-6-yl)amino)bicyclo[1.1.1]pentane-1-carbonitrile]	159 nM
CCOc1nc2nc(NC34CC(C#N)(C3)C4)nc(Oc3c(C)cc(/C=C/C#N)cc3C)c2n1C [Compound 298, (E)-3-((6-(4-(2-cyanovinyl)-2,6-dimethylphenoxy)-8-ethoxy-7-methyl-7H-purin-2-yl)amino)bicyclo[1.1.1]pentane-1-carbonitrile]	87.3 nM
Cc1cc(/C=C/C#N)cc(C)c1Oc1nc(NC23CC(C#N)(C2)C3)nc2nn3ccccc3c12 [Compound 299, (E)-3-((4-(4-(2-cyanovinyl)-2,6-dimethylphenoxy)pyrido[1′,2′:1,5]pyrazolo[3,4-d]pyrimidin-2-yl)amino)bicyclo[1.1.1]pentane-1-carbonitrile]	40.1 nM
Cc1cc(/C=C/C#N)cc(C)c1Oc1nc(NC23CC(C#N)(C2)C3)nc2occ(C)c12 [Compound 300, (E)-3-((4-(4-(2-cyanovinyl)-2,6-dimethylphenoxy)-5-methylfuro[2,3-d]pyrimidin-2-yl)amino)bicyclo[1.1.1]pentane-1-carbonitrile]	87.6 nM
Cc1cc(/C=C/C#N)cc(C)c1Oc1nc(NC23CC(C#N)(C2)C3)nc2nn3c(c12)OCCC3 [Compound 301, (E)-3-((4-(4-(2-cyanovinyl)-2,6-dimethylphenoxy)-7,8-dihydro-6H-pyrimido[4′,5′:3,4]pyrazolo[5,1-b][1,3]oxazin-2-yl)amino)bicyclo[1.1.1]pentane-1-carbonitrile]	50.7 nM
Cc1cc(/C=C/C#N)cc(C)c1Oc1nc(NC23CC(C#N)(C2)C3)nc2[nH]cc(C)c12 [Compound 302, (E)-3-((4-(4-(2-cyanovinyl)-2,6-dimethylphenoxy)-5-methyl-7H-pyrrolo[2,3-d]pyrimidin-2-yl)amino)bicyclo[1.1.1]pentane-1-carbonitrile]	211 nM
Cc1cc(/C=C/C#N)cc(C)c1Oc1nc(NC23CC(C#N)(C2)C3)nc2[nH]c(C)c(C)c12 [Compound 303, (E)-3-((4-(4-(2-cyanovinyl)-2,6-dimethylphenoxy)-5,6-dimethyl-7H-pyrrolo[2,3-d]pyrimidin-2-yl)amino)bicyclo[1.1.1]pentane-1-carbonitrile]	232 nM
Cc1cc(/C=C/C#N)cc(C)c1Oc1nc(NC23CC(C#N)(C2)C3)nc2nn(CC#N)cc12 [Compound 304, (E)-3-((2-(cyanomethyl)-4-(4-(2-cyanovinyl)-2,6-dimethylphenoxy)-2H-pyrazolo[3,4-d]pyrimidin-6-yl)amino)bicyclo[1.1.1]pentane-1-carbonitrile]	107 nM
Cc1cc(/C=C/C#N)cc(C)c1Oc1nc(NC23CC(C#N)(C2)C3)nc2nn(CCO)cc12 [Compound 305, (E)-3-((4-(4-(2-cyanovinyl)-2,6-dimethylphenoxy)-2-(2-hydroxyethyl)-2H-pyrazolo[3,4-d]pyrimidin-6-yl)amino)bicyclo[1.1.1]pentane-1-carbonitrile]	45 nM
Cc1cc(/C=C/C#N)cc(C)c1Oc1nc(NC23CC(C#N)(C2)C3)nc2c1C1(C)O[C@H](C)CN1C2=O (stereo partly drawn) [Compound 308, 3-(((6R)-4-(4-((E)-2-cyanovinyl)-2,6-dimethylphenoxy)-4b,6-dimethyl-9-oxo-4b,6,7,9-tetrahydrooxazolo[3′,2′:1,5]pyrrolo[3,4-d]pyrimidin-2-yl)amino)bicyclo[1.1.1]pentane-1-carbonitrile]	60.1 nM
Cc1cc(/C=C/C#N)cc(C)c1Oc1nc(NC23CC(C#N)(C2)C3)nc2c1[C@H](C)N(c1cnn(C)c1)C2=O [Compound 312, (S,E)-3-((4-(4-(2-cyanovinyl)-2,6-dimethylphenoxy)-5-methyl-6-(1-methyl-1H-pyrazol-4-yl)-7-oxo-6,7-dihydro-5H-pyrrolo[3,4-d]pyrimidin-2-yl)amino)bicyclo[1.1.1]pentane-1-carbonitrile]	15.1 nM
Cc1cc(/C=C/C#N)cc(C)c1Oc1nc(NC23CC(C#N)(C2)C3)nc2c1[C@@H](C)N(c1cnn(C)c1)C2=O [Compound 313, (R,E)-3-((4-(4-(2-cyanovinyl)-2,6-dimethylphenoxy)-5-methyl-6-(1-methyl-1H-pyrazol-4-yl)-7-oxo-6,7-dihydro-5H-pyrrolo[3,4-d]pyrimidin-2-yl)amino)bicyclo[1.1.1]pentane-1-carbonitrile]	468 nM
Cc1cc(/C=C/C#N)cc(C)c1Oc1nc(NC23CC(C#N)(C2)C3)nc2c1C1(C)OCCCN1C2=O (centres unmarked) [Compound 314, (E)-3-((4-(4-(2-cyanovinyl)-2,6-dimethylphenoxy)-4b-methyl-10-oxo-4b,7,8,10-tetrahydro-6H-pyrimido[5′,4′:3,4]pyrrolo[2,1-b][1,3]oxazin-2-yl)amino)bicyclo[1.1.1]pentane-1-carbonitrile]	25.3 nM
Cc1cc(/C=C/C#N)cc(C)c1Oc1nc(NC23CC(C#N)(C2)C3)nc2c1C(C)N(CC#N)C2=O (centres unmarked) [Compound 315, (E)-3-((6-(cyanomethyl)-4-(4-(2-cyanovinyl)-2,6-dimethylphenoxy)-5-methyl-7-oxo-6,7-dihydro-5H-pyrrolo[3,4-d]pyrimidin-2-yl)amino)bicyclo[1.1.1]pentane-1-carbonitrile]	188 nM
Cc1cc(/C=C/C#N)cc(C)c1Oc1nc(NC23CC(C#N)(C2)C3)nc2c1C(C)(O)N(CC#N)C2=O (centres unmarked) [Compound 316, (E)-3-((6-(cyanomethyl)-4-(4-(2-cyanovinyl)-2,6-dimethylphenoxy)-5-hydroxy-5-methyl-7-oxo-6,7-dihydro-5H-pyrrolo[3,4-d]pyrimidin-2-yl)amino)bicyclo[1.1.1]pentane-1-carbonitrile]	77.5 nM
CCc1cc(/C=C/C#N)cc(Cl)c1Oc1nc(NC23CC(C#N)(C2)C3)nc2[nH]nc(C)c12 [Example 1, (E)-3-((4-(2-chloro-4-(2-cyanovinyl)-6-ethylphenoxy)-3-methyl-1H-pyrazolo[3,4-d]pyrimidin-6-yl)amino)bicyclo[1.1.1]pentane-1-carbonitrile]	46.7 nM
Cc1cc(/C=C/C#N)cc(C)c1Oc1nc(NC23CC(C#N)(C2)C3)nc2c1C1(C)OCC3(CCC3)CN1C2=O (centres unmarked) [Example 198, (E)-3-((4′-(4-(2-cyanovinyl)-2,6-dimethylphenoxy)-4b′-methyl-10′-oxo-4b′,10′-dihydro-6′H,8′H-spiro[cyclobutane-1,7′-pyrimido[5′,4′:3,4]pyrrolo[2,1-b][1,3]oxazin]-2′-yl)amino)bicyclo[1.1.1]pentane-1-carbonitrile]	115 nM
Cc1cc(/C=C/C#N)cc(C)c1Oc1nc(NC23CC(C#N)(C2)C3)nc2c1C1(C)OCC3(COC3)CN1C2=O (centres unmarked) [Example 199, (E)-3-((4′-(4-(2-cyanovinyl)-2,6-dimethylphenoxy)-4b′-methyl-10′-oxo-4b′,10′-dihydro-6′H,8′H-spiro[oxetane-3,7′-pyrimido[5′,4′:3,4]pyrrolo[2,1-b][1,3]oxazin]-2′-yl)amino)bicyclo[1.1.1]pentane-1-carbonitrile]	49 nM
